From patent US8741836B2, “Polypeptides” (Novo Nordisk A/S, priority 2011, dated 2014) come the findings set out here.

Starred links: 1 amine or outer side, 2 acyl side, 3 side chain; linkers in the order of their positions; H or OH if unused. Positions of bridges follow the written chain, without caps; N, C: chain ends. Residues, ends and D or L forms follow the SMILES beside them. *: point of attachment. C20 diacid = O=C(O)CCCCCCCCCCCCCCCCCCC(=O)*; C18 diacid = O=C(O)CCCCCCCCCCCCCCCCC(=O)*; γGlu = O=C(O)[C@H](CCC(=O)[*:2])N[*:1]

For the assay, the system named is ad libitum fed rat. In words: Assay (I) efficacy testing on appetite (food intake) using an ad libitum fed rat model. Format: in vivo, Sprague Dawley (SD) rats. To be noted: 3 nmol/kg. An excerpt: In the following examples reference is made to the following Assays: • Assay (I)—Experimental protocol for efficacy testing on appetite using an ad libitum fed rat model • ASSAY (II)a—Functional assay—Human calcitonin and amylin receptor assay • ASSAY (II)b—Functional assay—Rat calcitonin and rat amylin receptor assays • ASSAY (III)—ThT fibrillation assays for the assessment of physical stability of protein formulations • ASSAY (IV)—Determination of solubility • ASSAY (V)—Determination of binding to the human amylin receptor • ASSAY (VI)—Determination of the binding to the rat amylin receptor • ASSAY (VII)—Determination of binding to the human calcitonin receptor • ASSAY (VIII)—Determination of binding to the rat calcitonin receptor • ASSAY (IX)—pK—Determination of T½ in mini-pig • ASSAY (X)—pK—Determination of T½ in rat Assay (I)—Experimental protocol for Efficacy Testing on Appetite Using an Ad Libitum Fed Rat Model
Sprague Dawley (SD) rats from Taconic Europe, Denmark are used for the experiments. The rats have a body weight 200-250 g at the start of experiment. The rats arrive at least 10-14 days before start of experiment to allow acclimatization to experimental settings. During this period the animals are handled at least 2 times. After arrival rats are housed individually for one week in a reversed light/dark phase (meaning that lights are off during daytime and on during nighttime) […]. Since rats are normally active and eat their major part of their daily food intake during the dark period, rats are dosed in the morning right before lights are turned off. This set-up results in the lowest data variation and highest test sensitivity. The experiment is conducted in the rats' home cages and rats have free access to food and water throughout the acclimatization period and the experiment period. Each dose of derivative is tested in a group of 5-8 rats. A vehicle group of 6-8 rats is included in each set of testing. Rats are dosed once according to body weight with a 0.01-3 mg/kg solution administered intraperitoneally (ip), orally (po) or subcutaneously (sc). The time of dosing is recorded for each group. After dosing, the rats are returned to their home cages, where they then have access to food and water. The food consumption is recorded individually continuously by on-line registration or manually every hour for 7 hours, and then after 24 h and sometimes 48 h. At the end of the experimental session, the animals are euthanised.
The individual data are recorded in Microsoft excel sheets. Outliers are excluded after applying the Grubbs statistical evaluation test for outliers, and the result is presented graphically using the GraphPad Prism program.

In the case of `CC[C@H](C)[C@H](NC(=O)[C@@H]1CCCN1C(=O)CNC(=O)[C@H](Cc1ccccc1)NC(=O)[C@H](CC(N)=O)NC(=O)[C@H](CC(N)=O)NC(=O)[C@H](CO)NC(=O)[C@H](CO)NC(=O)[C@H](Cc1c[nH]cn1)NC(=O)[C@H](Cc1c[nH]cn1)NC(=O)[C@H](CC(C)C)NC(=O)[C@H](Cc1ccccc1)NC(=O)[C@H](CCC(=O)O)NC(=O)[C@H](C)NC(=O)[C@H](CC(C)C)NC(=O)[C@H](CCCNC(=N)N)NC(=O)[C@H](CCC(N)=O)NC(=O)[C@@H](NC(=O)[C@H](C)NC(=O)[C@@H]1CSSC[C@H](NC(=O)[C@H](CCCCN)NC(=O)[C@H](CCC(=O)O)NC(=O)CC[C@H](NC(=O)CCCCCCCCCCCCCCCCC(=O)O)C(=O)O)C(=O)N[C@@H](CC(N)=O)C(=O)N[C@@H]([C@@H](C)O)C(=O)N[C@@H](C)C(=O)N[C@@H]([C@@H](C)O)C(=O)N1)[C@@H](C)O)C(=O)N[C@@H](CC(C)C)C(=O)N1CCC[C@H]1C(=O)N1CCC[C@H]1C(=O)N[C@H](C(=O)N[C@@H](CC(N)=O)C(=O)N[C@H](C(=O)NCC(=O)N[C@@H](CO)C(=O)N[C@@H](CC(N)=O)C(=O)N[C@H](C(=O)N[C@@H](Cc1ccc(O)cc1)C(N)=O)[C@@H](C)O)C(C)C)[C@@H](C)O` [Example 42, N-alpha-[(S)-4-Carboxy-4-(17-carboxyheptadecanoylamino)butyryl]-Glu-[Glu14,His17]-pramlintide] ({C18 diacid-γGlu}-EKCNTATCATQRLAEFLHHSSNNFGPILPPTNVGSNTY-NH2; disulfide 3-8), the “Food intake reduction 0-24 h 3 nmol/kg (%)” value was found to be 45% and the “Food intake reduction 24-48 h 3 nmol/kg (%)” value is 5%.

In the case of `CC[C@H](C)[C@H](NC(=O)[C@@H]1CCCN1C(=O)CNC(=O)[C@H](Cc1ccccc1)NC(=O)[C@H](CC(N)=O)NC(=O)[C@H](CC(N)=O)NC(=O)[C@H](CO)NC(=O)[C@H](CO)NC(=O)[C@H](Cc1c[nH]cn1)NC(=O)[C@H](Cc1c[nH]cn1)NC(=O)[C@H](CC(C)C)NC(=O)[C@H](Cc1ccccc1)NC(=O)[C@H](CCC(=O)O)NC(=O)[C@H](C)NC(=O)[C@H](CC(C)C)NC(=O)[C@H](CCCNC(=N)N)NC(=O)[C@H](CCC(N)=O)NC(=O)[C@@H](NC(=O)[C@H](C)NC(=O)[C@@H]1CSSC[C@H](NC(=O)[C@H](Cc2c[nH]cn2)NC(=O)CC[C@H](NC(=O)CCCCCCCCCCCCCCCCCCC(=O)O)C(=O)O)C(=O)N[C@@H](CC(N)=O)C(=O)N[C@@H]([C@@H](C)O)C(=O)N[C@@H](C)C(=O)N[C@@H]([C@@H](C)O)C(=O)N1)[C@@H](C)O)C(=O)N[C@@H](CC(C)C)C(=O)N1CCC[C@H]1C(=O)N1CCC[C@H]1C(=O)N[C@H](C(=O)N[C@@H](CC(N)=O)C(=O)N[C@H](C(=O)NCC(=O)N[C@@H](CO)C(=O)N[C@@H](CC(N)=O)C(=O)N[C@H](C(=O)N[C@@H](Cc1ccc(O)cc1)C(N)=O)[C@@H](C)O)C(C)C)[C@@H](C)O` [Example 18, N-alpha-[(S)-4-Carboxy-4-(19-carboxynonadecanoylamino)butyryl]-[His1,Glu14,His17]-pramlintide] ({C20 diacid-γGlu}-HCNTATCATQRLAEFLHHSSNNFGPILPPTNVGSNTY-NH2; disulfide 2-7), the “Food intake reduction 0-24 h 3 nmol/kg (%)” value came out at 40% and the “Food intake reduction 24-48 h 3 nmol/kg (%)” value is reported as 32%.
